# Test results as given in US20240025862A1, “SUBSTITUTED N-PHENYLURACILS AND SALTS THEREOF, AND USE THEREOF AS HERBICIDAL ACTIVE SUBSTANCES” (Bayer Aktiengesellschaft, priority 2020, published 2024).
# Key:
# Type in all cases: in vivo
# [1] = tested on: Abutilon theophrasti (ABUTH); experiment: Post-emergence herbicidal action, greenhouse pot test; conditions: Abutilon theophrasti, 504 h, rated visually after about 3 weeks vs untreated controls, 100% = plants have died; for pest or weed control at 5 g/ha: read-out: Post-emergence action at 5 g/ha against ABUTH in %; for pest or weed control at 20 g/ha: read-out: Post-emergence action at 20 g/ha against ABUTH in %
# In short: (§1)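 Greenhouse-grown weeds in sandy loam were sprayed post-emergence at the one-leaf stage, 2–3 weeks after sowing. Compounds were formulated as WP or EC in water with 0.5% additive at 600 l/ha, at rates of 20 g/ha or less. Visual rating after about 3 weeks used a scale from 0% (like untreated control) to 100% (plants dead).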
# [2] = tested on: Amaranthus retroflexus (AMARE); experiment: as above; conditions: Amaranthus retroflexus, 504 h, rated visually after about 3 weeks vs untreated controls, 100% = plants have died; for pest or weed control at 1.25 g/ha: read-out: Post-emergence action at 1.25 g/ha against AMARE in %; for pest or weed control at 20 g/ha: read-out: Post-emergence action at 20 g/ha against AMARE in %
# In short: as §1
# [3] = tested on: Pharbitis purpurea (PHBPU); experiment: as above; conditions: Ipomoea purpurea, 504 h, read-out: Post-emergence action against PHBPU in %; for pest or weed control at 1.25 g/ha: dosage 1.25 g/ha; for pest or weed control at 5 g/ha: dosage 5 g/ha; for pest or weed control at 20 g/ha: dosage 20 g/ha
# In short: as §1
# [4] = tested on: Polygonum convolvulus (POLCO); experiment: as above; conditions: Fallopia convolvulus, 504 h, read-out: Post-emergence action against POLCO in %
# In short: as §1
# Stellaria media (STEME) = experiment: as above
# In short: as §1
# Veronica persica (VERPE) = experiment: as above; conditions: Veronica persica, 504 h, read-out: Post-emergence action against VERPE
# In short: as §1
# Viola tricolor (VIOTR) = experiment: as above; conditions: Viola tricolor, 504 h, read-out: Post-emergence action against VIOTR
# In short: as §1
# [5] = tested on: Alopecurus myosuroides (ALOMY); experiment: Post-emergence herbicidal action, greenhouse pot test (also comparative test C); conditions: Alopecurus myosuroides, 504 h, rated visually after about 3 weeks vs untreated controls, 100% = plants have died; for pest or weed control at 20 g/ha: read-out: Post-emergence action at 20 g/ha against ALOMY in %
# In short: (§2)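 Visual rating against untreated controls, about 3 weeks after spraying, from 0% (like control) to 100% (plants dead). Weeds were treated at the one-leaf stage, 2–3 weeks after sowing in sandy loam, with aqueous WP/EC spray containing 0.5% additive at 600 l/ha. Doses were ≤20 g/ha, or ≤5 g/ha for comparative test C.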
# [6] = tested on: Echinochloa crus-galli (ECHCG); experiment: as above; conditions: Echinochloa crus-galli, 504 h, read-out: Post-emergence action against ECHCG in %; for pest or weed control at 20 g/ha: dosage 20 g/ha
# In short: as §2
# [7] = tested on: Matricaria inodora (MATIN); experiment: as above; conditions: Tripleurospermum inodorum, 504 h, read-out: Post-emergence action against MATIN in %; for pest or weed control at 5 g/ha: dosage 5 g/ha; for pest or weed control at 20 g/ha: dosage 20 g/ha
# In short: as §2
# Setaria viridis (SETVI) = experiment: as above; conditions: Setaria viridis, 504 h; for pest or weed control at 20 g/ha: read-out: Post-emergence action against SETVI; for pest or weed control at 1.25 g/ha: dosage 1.25 g/ha; for pest or weed control at 1.25 g/ha / pest or weed control at 5 g/ha: read-out: Post-emergence action against SETVI in %; for pest or weed control at 5 g/ha: dosage 5 g/ha
# In short: as §2
# Glycine max (GLXMA) = experiment: Post-emergence crop plant compatibility, greenhouse pot test
# In short: (§3)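 Crop plants grown in sandy loam in the greenhouse were sprayed post-emergence at the one-leaf stage, 2–3 weeks after sowing, with WP or EC formulations as aqueous suspension/emulsion plus 0.5% additive at 600 l/ha. Damage was rated visually about 3 weeks later versus untreated controls (0% = like control, 100% = plants dead).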
# [8] = tested on: Triticum aestivum (TRZAS); experiment: as above; conditions: vs untreated controls
# In short: as §3
# Zea mays (ZEAMX) = experiment: as above; conditions: vs untreated controls
# In short: as §3
# Oryza sativa (ORYSA) = experiment: Post-emergence crop plant compatibility, greenhouse pot test (also comparative test C); conditions: vs untreated controls
# In short: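 Rice and other crops sprayed post-emergence at one-leaf stage (2–3 weeks after sowing) with WP or EC formulations plus 0.5% additive at 600 l/ha water. Visual rating about 3 weeks later versus untreated controls (100% = dead, 0% = like control); suffixes a–c denote different doses.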
# Avena fatua (AVEFA) = experiment: Post-emergence herbicidal action, greenhouse pot test; conditions: Avena fatua, 504 h, 20 g/ha, rated visually after about 3 weeks vs untreated controls, 100% = plants have died, read-out: Post-emergence action at 20 g/ha against AVEFA in %
# In short: as §1
# Lolium rigidum (LOLRI) = experiment: as above; conditions: Lolium rigidum, 504 h, dosage 20 g/ha, read-out: Post-emergence action against LOLRI in %
# In short: as §1
SMILES,pest or weed control at 5 g/ha [1],pest or weed control at 20 g/ha [1],pest or weed control at 1.25 g/ha [2],pest or weed control at 20 g/ha [2],pest or weed control at 1.25 g/ha [3],pest or weed control at 5 g/ha [3],pest or weed control at 20 g/ha [3],pest or weed control at 5 g/ha (Veronica persica (VERPE)),pest or weed control at 20 g/ha (Veronica persica (VERPE)),pest or weed control at 1.25 g/ha (Viola tricolor (VIOTR)),pest or weed control at 5 g/ha (Viola tricolor (VIOTR)),pest or weed control at 20 g/ha (Viola tricolor (VIOTR)),pest or weed control at 20 g/ha [5],pest or weed control at 20 g/ha [6],pest or weed control at 5 g/ha [7],pest or weed control at 20 g/ha [7],pest or weed control at 20 g/ha (Setaria viridis (SETVI)),pest or weed control at 1.25 g/ha (Setaria viridis (SETVI)),pest or weed control at 5 g/ha (Setaria viridis (SETVI)),Post-emergence action against TRZAS (crop plant compatibility) ([8]; 1.25 g/ha),further results
"COCCOC(=O)C(C)Oc1ccccc1Sc1cc(-n2c(=O)cc(C(F)(F)F)n(C)c2=O)c(F)cc1Cl (racemic) [I.2-1, 2-Methoxyethyl (2RS)-2-[2-({2-chloro-4-fluoro-5-[3-methyl-2,6-dioxo-4-(trifluoromethyl)-3,6-dihydropyrimidin-1(2H)-yl]phenyl}sulfanyl)phenoxy]propanoate]",100%,100%,100%,100%,100%,100%,100%,100%,100%,100%,100%,100%,80%,100%,80%,100%,100%,100%,100%,20%,pest or weed control at 5 g/ha ([4]; dosage 5 g/ha): 80%; pest or weed control at 20 g/ha ([4]; dosage 20 g/ha): 100%; Post-emergence action against STEME (Stellaria media (STEME); 1.25 g/ha): 80%; Post-emergence action against STEME (Stellaria media (STEME); 5 g/ha): 100%; Post-emergence action against STEME (Stellaria media (STEME); 20 g/ha): 100%; pest or weed control at 1.25 g/ha (Veronica persica (VERPE); 1.25 g/ha): 90%; Post-emergence action against GLXMA in % (Glycine max (GLXMA); 1.25 g/ha): 0%; Post-emergence action against GLXMA in % (Glycine max (GLXMA); 5 g/ha): 10%; Post-emergence action against GLXMA in % (Glycine max (GLXMA); 20 g/ha): 20%; Post-emergence action against TRZAS (crop plant compatibility) ([8]; 5 g/ha): 20%; Post-emergence action against ZEAMX (crop plant compatibility) (Zea mays (ZEAMX); 1.25 g/ha): 10%; Post-emergence action against ZEAMX (crop plant compatibility) (Zea mays (ZEAMX); 5 g/ha): 10%; Post-emergence action against ZEAMX (crop plant compatibility) (Zea mays (ZEAMX); 20 g/ha): 20%; Post-emergence action against ORYSA (crop plant compatibility) (Oryza sativa (ORYSA); 1.25 g/ha): 10%; Post-emergence action against ORYSA (crop plant compatibility) (Oryza sativa (ORYSA); 5 g/ha): 10%
"Cn1c(C(F)(F)F)cc(=O)n(-c2cc(Oc3ccccc3OCC(=O)OCC[N+](=O)[O-])c(Cl)cc2F)c1=O [I.7-183, 2-Nitroethyl (2-{2-chloro-4-fluoro-5-[3-methyl-2,6-dioxo-4-(trifluoromethyl)-3,6-dihydropyrimidin-1(2H)-yl]phenoxy}phenoxy)acetate]",100%,100%,100%,100%,80%,100%,100%,100%,100%,100%,100%,100%,100%,100%,100%,100%,100%,100%,100%,20%,"pest or weed control at 1.25 g/ha ([1]; 1.25 g/ha, read-out: Post-emergence action at 1.25 g/ha against ABUTH in %): 100%; pest or weed control at 5 g/ha ([2]; 5 g/ha, read-out: Post-emergence action at 5 g/ha against AMARE in %): 100%; pest or weed control at 20 g/ha (Avena fatua (AVEFA)): 90%; pest or weed control at 20 g/ha (Lolium rigidum (LOLRI)): 80%; pest or weed control at 5 g/ha ([5]; 5 g/ha, read-out: Post-emergence action at 5 g/ha against ALOMY in %): 80%; pest or weed control at 5 g/ha ([6]; dosage 5 g/ha): 100%; pest or weed control at 1.25 g/ha ([7]; dosage 1.25 g/ha): 80%; Post-emergence action against ORYSA (crop plant compatibility) (Oryza sativa (ORYSA); 1.25 g/ha): 0%"
